Data set [1] concerns the target T1, Polyunsaturated fatty acid 5-lipoxygenase (Homo sapiens, UniProt P09917).
T1 sequence (P09917 whole entry): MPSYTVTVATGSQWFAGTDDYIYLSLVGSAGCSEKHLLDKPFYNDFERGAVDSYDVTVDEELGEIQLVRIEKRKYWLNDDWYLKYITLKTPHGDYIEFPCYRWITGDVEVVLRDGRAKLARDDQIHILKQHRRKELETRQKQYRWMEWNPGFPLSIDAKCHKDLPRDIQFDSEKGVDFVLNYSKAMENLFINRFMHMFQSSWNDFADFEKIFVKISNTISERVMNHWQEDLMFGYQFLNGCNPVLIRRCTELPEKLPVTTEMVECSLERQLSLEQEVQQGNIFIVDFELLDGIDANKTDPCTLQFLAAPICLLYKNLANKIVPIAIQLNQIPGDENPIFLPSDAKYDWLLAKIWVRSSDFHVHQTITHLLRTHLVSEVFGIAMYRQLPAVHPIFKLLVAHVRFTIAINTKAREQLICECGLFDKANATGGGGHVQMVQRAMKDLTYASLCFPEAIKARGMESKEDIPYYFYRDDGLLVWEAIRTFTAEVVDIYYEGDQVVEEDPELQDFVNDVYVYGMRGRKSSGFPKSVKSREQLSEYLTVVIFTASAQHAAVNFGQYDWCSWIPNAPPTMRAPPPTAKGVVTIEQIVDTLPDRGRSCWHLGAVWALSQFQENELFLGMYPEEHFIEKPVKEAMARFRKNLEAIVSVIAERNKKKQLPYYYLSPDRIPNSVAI
Description: Inhibition of 5-LOX (unknown orgin) using arachidonic acid as substrate incubated for 10 mins by colorimetric assay.

Another data set concerns the target Albumin (Homo sapiens, UniProt P02768). As to the kind of experiment: Binding affinity to human serum albumin in phosphate buffer at pH 7.4 incubated at 298 K.
Data set [2] has as its target T2, Polyunsaturated fatty acid 5-lipoxygenase (Homo sapiens) (UniProt P09917).
T2 sequence (whole entry): T1 sequence (P09917 whole entry)
Description: Binding affinity to 5-LOX (unknown origin).

Data set [3] can be described thus: Stability of compound in human plasma assessed as drug degradation at 37 degC measured after 90 mins by LC-MS analysis. In kind it is ADME, cell-free. As to conditions: read-out: Drug degradation.
Data set [4] has as its system Panel NCI-60 (60 carcinoma cell lines). Description: Cytotoxicity against human Panel NCI-60 (60 carcinoma cell lines) cells assessed as reduction in cell viability. Type of data set: functional.
Data set [5] can be described thus: Solubility of the compound in PBS buffer by UV spectrum based solubility assay. In kind it is physicochemical.
Data set [6] addresses T2, Polyunsaturated fatty acid 5-lipoxygenase (Homo sapiens). Description: Competitive inhibition of 5-LOX (unknown origin) using arachidonic acid as substrate by Michaelis-Menten equation based kinetic analysis.
Data set [7] in a line: Half life in human liver microsome by LC-MS/MS analysis. To be noted: liver microsomes. Type of data set: ADME. A general note: Liver microsomes are a subcellular fraction often used to study metabolism.

The source of these data is ChEMBL document CHEMBL5365422 (Bioorg Med Chem Lett, 2023).

In brackets after ≈: the same amount, converted by molar mass. Activity calls are given as the source filed them. Where only a bound is given, the exact number is not on record here.

Chain of Albumin (P02768 whole entry): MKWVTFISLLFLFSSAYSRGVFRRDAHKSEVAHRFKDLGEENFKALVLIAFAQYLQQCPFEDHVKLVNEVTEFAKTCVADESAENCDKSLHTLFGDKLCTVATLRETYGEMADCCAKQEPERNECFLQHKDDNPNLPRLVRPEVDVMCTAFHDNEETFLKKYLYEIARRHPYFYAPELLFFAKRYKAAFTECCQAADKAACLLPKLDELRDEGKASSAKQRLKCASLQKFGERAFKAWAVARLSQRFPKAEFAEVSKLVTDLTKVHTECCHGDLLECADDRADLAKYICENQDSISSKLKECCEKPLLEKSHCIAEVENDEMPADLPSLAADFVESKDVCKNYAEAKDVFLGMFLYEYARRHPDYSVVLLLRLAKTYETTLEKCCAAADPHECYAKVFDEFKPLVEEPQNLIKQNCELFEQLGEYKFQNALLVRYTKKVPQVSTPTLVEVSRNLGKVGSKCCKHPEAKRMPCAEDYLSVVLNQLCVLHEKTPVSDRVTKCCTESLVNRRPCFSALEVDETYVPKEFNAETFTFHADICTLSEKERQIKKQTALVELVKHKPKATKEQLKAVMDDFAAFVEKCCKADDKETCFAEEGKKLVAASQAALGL

Compound `C=CCn1cc(Cc2c(O)n(-c3c(Cl)cccc3Cl)c3ccccc23)c2ccccc21` displayed an IC50 in data set [1] of 70 nM. Moreover, the K was 7.6 10^2/M on Albumin and 1.8 10^8/M in data set [2]. For the same compound, in data set [3], the metabolised at 1.5 h is 4%. Moreover, the LC50 (concentration killing 50% of cells) in data set [4] was more than 100000 nM.
On the same counts, the results for `C#CCn1cccc1CC1c2ccccc2N(c2c(Cl)cccc2Cl)C1O` (stereo not drawn) are 250 nM, 4.1 10^4/M, 0.9 10^8/M, 4% and more than 100000 nM.
`O=C1C(Cc2ccc[nH]2)c2ccccc2N1c1c(Cl)cccc1Cl` (stereo not drawn) gave an IC50 in data set [1] of 30 nM. For the same compound, the solubility in data set [5] was determined as 26 µM (≈ 9.29 µg/mL). Moreover, the K at Albumin is 3.8 10^4/M; in data set [2], 1.1 10^8/M. Besides, the inhibition entry in data set [6] is “Active”. Further, the metabolised at 1.5 h in data set [3] came to 4%. In data set [7], this compound yielded a half-life of 1.5 h. Further, in data set [4], the LC50 (concentration killing 50% of cells) is more than 100000 nM.
The compound `O=C1C(Cc2c[nH]c3ccccc23)c2ccccc2N1c1c(Cl)cccc1Cl` (stereo not drawn) yielded an IC50 in data set [1] of 310 nM. Also, the values for the K (at Albumin; in data set [2]) were 1.1 10^3/M and 4.2 10^8/M, respectively. For the same compound, the metabolised at 1.5 h in data set [3] worked out at 4%. Also, the LC50 (concentration killing 50% of cells) in data set [4] was more than 100000 nM.
On the same counts, the results for `Oc1c(Cc2cn(Cc3ccccc3)c3ccccc23)c2ccccc2n1-c1c(Cl)cccc1Cl` are 100 nM, 1.4 10^4/M, 0.8 10^8/M, 4% and more than 100000 nM.
On the same counts, the results for `C#CCn1cc(Cc2c(O)n(-c3c(Cl)cccc3Cl)c3ccccc23)c2ccccc21` are more than 10000 nM, 1.1 10^4/M, 3.1 10^8/M, 4% and more than 100000 nM.
On the same counts, the results for `CCOC(=O)Cn1cc(Cc2c(O)n(-c3c(Cl)cccc3Cl)c3ccccc23)c2ccccc21` are 630 nM, 2.7 10^3/M, 4.5 10^8/M, 4% and more than 100000 nM.
In data set [1], `O=C(O)Cn1cc(Cc2c(O)n(-c3c(Cl)cccc3Cl)c3ccccc23)c2ccccc21` came in with an IC50 of 1230 nM. The K was 5.2 10^4/M on Albumin and 2.5 10^8/M in data set [2]. Besides, in data set [3], the metabolised at 1.5 h was determined as 4%. In data set [4], the LC50 (concentration killing 50% of cells) was more than 100000 nM.
On the same counts, the results for `C=CCn1cccc1CC1C(=O)N(c2c(Cl)cccc2Cl)c2ccccc21` (stereo not drawn) are 1770 nM, 1.7 10^4/M, 1.4 10^8/M, 4% and more than 100000 nM.
On the same counts, the results for `CCOC(=O)Cn1cccc1CC1c2ccccc2N(c2c(Cl)cccc2Cl)C1O` (stereo not drawn) are 1310 nM, 1.4 10^4/M, 1.7 10^8/M, 4% and more than 100000 nM.
On the same counts, the results for `O=C(O)Cn1cccc1Cc1c(O)n(-c2c(Cl)cccc2Cl)c2ccccc12` are 430 nM, 1.4 10^4/M, 4.9 10^8/M, 4% and more than 100000 nM.
In data set [1], `O=C1C(Cc2cccn2Cc2ccccc2)c2ccccc2N1c1c(Cl)cccc1Cl` (stereo not drawn) registered an IC50 of 490 nM. In addition, the K at Albumin is 1.2 10^4/M; in data set [2], 2.4 10^8/M. Also, the metabolised at 1.5 h in data set [3] was 4%. The LC50 (concentration killing 50% of cells) in data set [4] is more than 100000 nM.
On the same counts, the results for `COc1cc(CC2C(=O)N(c3c(Cl)cccc3Cl)c3ccccc32)cc(OC)c1OC` (stereo not drawn) are 260 nM, 6.9 10^4/M, 0.9 10^8/M, 4% and more than 100000 nM.

As usually defined, the IC50 is the concentration that gives 50% inhibition. For orientation: solubility means how much of the substance goes into solution per volume. Higher therefore signals much dissolved substance. The half-life is the time needed for the level to fall by half in the phase considered. The low end stands for rapid decline, the high end for slow decline.
